Target: human APJ receptor (Homo sapiens (Human), UniProt P35414)
Test: [35S]GTPγS binding assay on membranes from CHO cells stably expressing human APJ receptor
Format: biochemical
Conditions: read-out: Activity hAPJ SPA EC50 IP
Outline: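 Membranes from CHO cells stably expressing human APJ incubated with ligand, 0.2 nM [35S]GTPγS and WGA SPA beads in HEPES pH 7.5 with 5 mM MgCl2, 200 mM NaCl, 3 μM GDP, 90 min at RT. Nonspecific binding defined with 100 μM GTPγS; EC50 by non-linear regression.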

Sequence of human APJ receptor (P35414 whole entry): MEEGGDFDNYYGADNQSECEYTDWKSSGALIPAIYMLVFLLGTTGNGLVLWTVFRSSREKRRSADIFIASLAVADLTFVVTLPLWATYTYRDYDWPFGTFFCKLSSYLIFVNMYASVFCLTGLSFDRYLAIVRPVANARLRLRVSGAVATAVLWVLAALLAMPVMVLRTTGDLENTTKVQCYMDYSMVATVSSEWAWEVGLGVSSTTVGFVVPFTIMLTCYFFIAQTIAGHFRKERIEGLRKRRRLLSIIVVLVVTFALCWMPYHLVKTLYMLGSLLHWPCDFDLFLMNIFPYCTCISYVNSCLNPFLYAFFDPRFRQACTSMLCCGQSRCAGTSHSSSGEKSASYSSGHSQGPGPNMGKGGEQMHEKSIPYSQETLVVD

| Structure (SMILES) | EC50 [µM] |
| --- | --- |
| C[C@H](c1ncc(Cl)cn1)[C@H](C)S(=O)(=O)Nc1nnc([C@@H]2CCOC2)n1[C@H](C)c1ccon1 (single isomer, unassigned) [Example 416.0, (2S,3R)-3-(5-chloro-2-pyrimidinyl)-N-(4-((1R)-1-(1,2-oxazol-3-yl)ethyl)-5-((3S)-tetrahydro-3-furanyl)-4H-1,2,4-triazol-3-yl)-2-butanesulfonamide or (2S,3R)-3-(5-chloro-2-pyrimidinyl)-N-(4-((1S)-1-(1,2-oxazol-3-yl)ethyl)-5-((3S)-tetrahydro-3-furanyl)-4H-1,2,4-triazol-3-yl)-2-butanesulfonamide] | 0.19 |
| COc1cccc(OC)c1-n1c(NS(=O)(=O)[C@@H](C)[C@@H](OC(C)C)c2ncc(C)cn2)nnc1[C@H]1CCC(=O)N1C (single isomer, unassigned) [Example 417.0, (1S,2S)-N-(4-(2,6-dimethoxyphenyl)-5-((2R)-1-methyl-5-oxo-2-pyrrolidinyl)-4H-1,2,4-triazol-3-yl)-1-(5-methyl-2-pyrimidinyl)-1-(2-propanyloxy)-2-propanesulfonamide or (1S,2S)-N-(4-(2,6-dimethoxyphenyl)-5-((2S)-1-methyl-5-oxo-2-pyrrolidinyl)-4H-1,2,4-triazol-3-yl)-1-(5-methyl-2-pyrimidinyl)-1-(2-propanyloxy)-2-propanesulfonamide] | 0.19 |
| COc1cccc(OC)c1-n1c(NS(=O)(=O)[C@@H](C)[C@@H](OC(C)C)c2ncc(C)cn2)nnc1[C@H]1CCC(=O)N1C (single isomer, unassigned) [Example 418.0, (1S,2S)-N-(4-(2,6-dimethoxyphenyl)-5-((2R)-1-methyl-5-oxo-2-pyrrolidinyl)-4H-1,2,4-triazol-3-yl)-1-(5-methyl-2-pyrimidinyl)-1-(2-propanyloxy)-2-propanesulfonamide or (1S,2S)-N-(4-(2,6-dimethoxyphenyl)-5-((2S)-1-methyl-5-oxo-2-pyrrolidinyl)-4H-1,2,4-triazol-3-yl)-1-(5-methyl-2-pyrimidinyl)-1-(2-propanyloxy)-2-propanesulfonamide] | 0.35 |
| COc1cccc(OC)c1-n1c(NS(=O)(=O)[C@@H](C)[C@H](C)c2ncc(Cl)cn2)nnc1[C@H]1CCC(=O)N1C (single isomer, unassigned) [Example 419.0, (2S,3R)-3-(5-chloro-2-pyrimidinyl)-N-(4-(2,6-dimethoxyphenyl)-5-((2R)-1-methyl-5-oxo-2-pyrrolidinyl)-4H-1,2,4-triazol-3-yl)-2-butanesulfonamide or ((2S,3R)-3-(5-chloro-2-pyrimidinyl)-N-(4-(2,6-dimethoxyphenyl)-5-((2S)-1-methyl-5-oxo-2-pyrrolidinyl)-4H-1,2,4-triazol-3-yl)-2-butanesulfonamide] | 3.43 |
| COc1cccc(OC)c1-n1c(NS(=O)(=O)CCc2ncc(Cl)cn2)nnc1[C@@H]1COCCO1 (single isomer, unassigned) [Example 424.0, 2-(5-chloro-2-pyrimidinyl)-N-(4-(2,6-dimethoxyphenyl)-5-((2R)-1,4-dioxan-2-yl)-4H-1,2,4-triazol-3-yl)ethanesulfonamide or 2-(5-chloro-2-pyrimidinyl)-N-(4-(2,6-dimethoxyphenyl)-5-((2S)-1,4-dioxan-2-yl)-4H-1,2,4-triazol-3-yl)ethanesulfonamide] | 0.052 |
| COc1cccc(OC)c1-n1c(NS(=O)(=O)CCc2ncc(Cl)cn2)nnc1[C@@H]1COCCO1 (single isomer, unassigned) [Example 425.0, 2-(5-chloro-2-pyrimidinyl)-N-(4-(2,6-dimethoxyphenyl)-5-((2R)-1,4-dioxan-2-yl)-4H-1,2,4-triazol-3-yl)ethanesulfonamide or 2-(5-chloro-2-pyrimidinyl)-N-(4-(2,6-dimethoxyphenyl)-5-((2S)-1,4-dioxan-2-yl)-4H-1,2,4-triazol-3-yl)ethanesulfonamide] | 0.13 |
| COc1cccc(OC)c1-n1c(NS(=O)(=O)[C@@H](C)[C@H](C)c2ncc(Cl)cn2)nnc1[C@H]1CCO1 (single isomer, unassigned) [Example 445.0, (2S,3R)-3-(5-chloropyrimidin-2-yl)-N-(4-(2,6-dimethoxyphenyl)-5-((R)-oxetan-2-yl)-4H-1,2,4-triazol-3-yl)butane-2-sulfonamide or (2S,3R)-3-(5-chloropyrimidin-2-yl)-N-(4-(2,6-dimethoxyphenyl)-5-((S)-oxetan-2-yl)-4H-1,2,4-triazol-3-yl)butane-2-sulfonamide] | 0.03 |
| COc1cccc(OC)c1-n1c(NS(=O)(=O)[C@@H](C)[C@H](C)c2ncc(Cl)cn2)nnc1[C@@H]1CCN(C(=O)OC(C)(C)C)C1 (stereo in doubt) [Example 41.0, tert-butyl (3R)-3-(5-((((1S,2R)-2-(5-chloro-2-pyrimidinyl)-1-methylpropyl)sulfonyl)amino)-4-(2,6-dimethoxyphenyl)-4H-1,2,4-triazol-3-yl)-1-pyrrolidinecarboxylate or tert-butyl (3S)-3-(5-((((1S,2R)-2-(5-chloro-2-pyrimidinyl)-1-methylpropyl)sulfonyl)amino)-4-(2,6-dimethoxyphenyl)-4H-1,2,4-triazol-3-yl)-1-pyrrolidinecarboxylate] | 0.82 |
| COc1cccc(OC)c1-n1c(NS(=O)(=O)[C@@H](C)[C@H](C)c2ncc(Cl)cn2)nnc1[C@H]1CCN(C(=O)OC(C)(C)C)C1 (stereo in doubt) [Example 42.0, tert-butyl (3S)-3-(5-((((1S,2R)-2-(5-chloro-2-pyrimidinyl)-1-methylpropypsulfonyl)amino)-4-(2,6-dimethoxyphenyl)-4H-1,2,4-triazol-3-yl)-1-pyrrolidinecarboxylate or tert-butyl (3R)-3-(5-((((1S,2R)-2-(5-chloro-2-pyrimidinyl)-1-methylpropypsulfonyl)amino)-4-(2,6-dimethoxyphenyl)-4H-1,2,4-triazol-3-yl)-1-pyrrolidinecarboxylate] | 0.21 |
| COc1cccc(OC)c1-n1c(NS(=O)(=O)[C@H](C)Cc2ncc(F)cn2)nnc1[C@H]1CCOC1 [Example 6.0] | 0.4 |
| Cc1cnc([C@@H](C)[C@H](C)S(=O)(=O)Nc2nnc([C@@H]3CCCO3)n2-c2c(F)cccc2F)nc1 [Example 18.0, (2S,3R)-N-(4-(2,6-difluorophenyl)-5-((2S)-tetrahydro-2-furanyl)-4H-1,2,4-triazol-3-yl)-3-(5-methyl-2-pyrimidinyl)-2-butanesulfonamide] | 0.12 |
| Cc1cnc([C@@H](C)[C@H](C)S(=O)(=O)Nc2nnc([C@H]3CCCO3)n2-c2c(F)cccc2F)nc1 [Example 19.0, (2S,3R)-N-(4-(2,6-difluorophenyl)-5-((2R)-tetrahydro-2-furanyl)-4H-1,2,4-triazol-3-yl)-3-(5-methyl-2-pyrimidinyl)-2-butanesulfonamide] | 0.06 |
| Cc1cnc([C@@H](C)[C@H](C)S(=O)(=O)Nc2nnc([C@@H]3CCCO3)n2-c2c(F)cncc2F)nc1 [Example 25.0, (2S,3R)-N-(4-(3,5-difluoro-4-pyridinyl)-5-((2S)-tetrahydro-2-furanyl)-4H-1,2,4-triazol-3-yl)-3-(5-methyl-2-pyrimidinyl)-2-butanesulfonamide] | 0.13 |
| Cc1cnc([C@@H](C)[C@H](C)S(=O)(=O)Nc2nnc([C@H]3CCCO3)n2-c2c(F)cncc2F)nc1 [Example 26.0, (2S,3R)-N-(4-(3,5-difluoro-4-pyridinyl)-5-((2R)-tetrahydro-2-furanyl)-4H-1,2,4-triazol-3-yl)-3-(5-methyl-2-pyrimidinyl)-2-butanesulfonamide] | 0.87 |
| COc1cccc(OC)c1-n1c(NS(=O)(=O)[C@@H](C)[C@H](C)c2ncc(Cl)cn2)nnc1C1COC1 [Example 36.0, (2S,3R)-3-(5-chloro-2-pyrimidinyl)-N-(4-(2,6-dimethoxyphenyl)-5-(3-oxetanyl)-4H-1,2,4-triazol-3-yl)-2-butanesulfonamide] | 0.14 |
| COc1cccc(OC)c1-n1c(NS(=O)(=O)CCc2ccc(F)cc2C#N)nnc1[C@H]1CCC(=O)N1 [Example 43.0, 2-(2-Cyano-4-fluorophenyl)-N-(4-(2,6-dimethoxyphenyl)-5-((2R)-5-oxo-2-pyrrolidinyl)-4H-1,2,4-triazol-3-yl)ethanesulfonamide] | 1.19 |
| COc1cccc(OC)c1-n1c(NS(=O)(=O)CCc2ccc(F)cc2C#N)nnc1[C@@H]1CCC(=O)N1 [Example 44.0, 2-(2-Cyano-4-fluorophenyl)-N-(4-(2,6-dimethoxyphenyl)-5-((2S)-5-oxo-2-pyrrolidinyl)-4H-1,2,4-triazol-3-yl)ethanesulfonamide] | 0.43 |
| COc1cccc(OC)c1-n1c(NS(=O)(=O)[C@@H](C)[C@H](OC)c2ncc(Cl)cn2)nnc1C1CCOCC1 [Example 103.0, (1R,2S)-1-(5-chloropyrimidin-2-yl)-N-(4-(2,6-dimethoxyphenyl)-5-(tetrahydro-2H-pyran-4-yl)-4H-1,2,4-triazol-3-yl)-1-methoxypropane-2-sulfonamide] | 0.045 |
| COc1ccccc1-n1c(NS(=O)(=O)[C@@H](C)[C@H](OC)c2ncc(Cl)cn2)nnc1[C@@H]1CCCO1 [Example 240.0, (1R,2S)-1-(5-chloro-2-pyrimidinyl)-1-methoxy-N-(4-(2-methoxyphenyl)-5-((2S)-tetrahydro-2-furany1)-4H-1,2,4-triazol-3-y1)-2-propanesulfonamide] | 0.0013 |
| CCc1ccccc1-n1c(NS(=O)(=O)[C@@H](C)[C@H](OC)c2ncc(Cl)cn2)nnc1[C@@H]1CCCO1 [Example 241.0, (1R,2S)-1-(5-chloro-2-pyrimidinyl)-N-(4-(2-ethylphenyl)-5-((2S)-tetrahydro-2-furanyl)-4H-1,2,4-triazol-3-y1)-1-methoxy-2-propanesulfonamide] | 0.0014 |
| CO[C@H](c1ncc(Cl)cn1)[C@H](C)S(=O)(=O)Nc1nnc([C@@H]2CCCO2)n1-c1ccccc1C [Example 242.0, (1R,2S)-1-(5-chloro-2-pyrimidinyl)-1-methoxy-N-(4-(2-methylphenyl)-5-((2S)-tetrahydro-2-furanyl)-4H-1,2,4-triazol-3-yl)-2-propanesulfonamide] | 0.0087 |
